From paper PMC10279719 (Nature Communications, 2023)
pKd: −log10 of the molar value.

Assays:
[1] = biological target: T1, 14-3-3η (Homo sapiens, UniProt Q04917); experiment: SPR, PEAK tandem peptides binding to immobilised 14-3-3η; conditions: peptide analyte over amine-coupled 14-3-3η (CM5); Biacore S200, HBS-TP pH 7.4, 20 °C; steady-state 1:1 fit; mean ± S.E.M.; read-out: SPR KD, 14-3-3η (eta)
T1 construct: 14-3-3η (UniProt Q04917-1; residues 1–246); 8-His tag with TEV protease cleavage site (N); made in house; host or cells: E. coli C41 (DE3)
T1 sequence (Q04917 1-246): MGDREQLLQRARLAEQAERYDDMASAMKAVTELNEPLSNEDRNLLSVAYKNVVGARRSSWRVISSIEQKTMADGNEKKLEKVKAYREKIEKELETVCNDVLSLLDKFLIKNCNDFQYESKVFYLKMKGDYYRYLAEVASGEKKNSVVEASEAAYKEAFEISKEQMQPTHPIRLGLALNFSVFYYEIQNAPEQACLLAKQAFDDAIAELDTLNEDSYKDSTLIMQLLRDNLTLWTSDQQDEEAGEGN
Description: (§1) Purified […]3 was diluted to 5 μg ml^-1 in 10 mM sodium acetate pH 4.0 and amine coupled at 25 °C to a Series S CM5 sensor chip, in HBS-N running buffer (20 mM HEPES pH 7.4, 150 mM NaCl) to a final immobilization level of 1100-1400 response units (RU), followed by surface deactivation using 1 M ethanolamine. A blank activation/deactivation was used for the reference surface. […] Samples were injected in a multi-cycle run (flow rate 30 μl min^-1, contact time of 60 s, dissociation 120 s) without regeneration. Sensorgrams were double referenced, and steady-state binding data fitted using a 1:1 binding model using Biacore S200 Evaluation Software (Cytiva, v. 1.1). […] Representative sensorgrams and fitted dissociation constant (KD) values, depicted as mean ± S.E.M.

[2] = biological target: T2, 14-3-3ε (Homo sapiens, UniProt P62258); experiment: SPR, PEAK tandem peptides binding to immobilised 14-3-3ε; conditions: peptide analyte over amine-coupled 14-3-3ε (CM5); Biacore S200, HBS-TP pH 7.4, 20 °C; steady-state 1:1 fit; mean ± S.E.M.; read-out: SPR KD, 14-3-3ε (epsilon)
T2 construct: 14-3-3ε (UniProt P62258-1; residues 1–255); 8-His tag with TEV protease cleavage site (N); made in house; host or cells: E. coli C41 (DE3)
T2 sequence (P62258 1-255): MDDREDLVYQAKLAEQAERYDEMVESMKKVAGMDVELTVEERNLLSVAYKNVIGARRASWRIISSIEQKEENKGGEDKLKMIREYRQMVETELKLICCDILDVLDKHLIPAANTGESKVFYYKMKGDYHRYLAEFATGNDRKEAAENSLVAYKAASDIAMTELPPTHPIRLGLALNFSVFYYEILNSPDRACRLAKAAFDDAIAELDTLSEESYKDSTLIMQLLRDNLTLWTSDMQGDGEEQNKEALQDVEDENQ
Description: Purified […]3 was diluted to 5 μg ml^-1 in 10 mM sodium acetate pH 4.0 and amine coupled at 25 °C to a Series S CM5 sensor chip, in HBS-N running buffer (20 mM HEPES pH 7.4, 150 mM NaCl) to a final immobilization level of 1100-1400 response units (RU), followed by surface deactivation using 1 M ethanolamine. A blank activation/deactivation was used for the reference surface. […] PEAK PRM peptides: […] Samples were injected in a multi-cycle run (flow rate 30 μl min^-1, contact time of 60 s, dissociation 120 s) without regeneration. Sensorgrams were double referenced, and steady-state binding data fitted using a 1:1 binding model using Biacore S200 Evaluation Software (Cytiva, v. 1.1). […] Representative sensorgrams and fitted dissociation constant (KD) values, depicted as mean ± S.E.M.

[3] = biological target: T3, CrkII^NSH3 (Homo sapiens, UniProt P46108); experiment: ITC, CrkII NSH3 titrated into PEAK3 tandem peptides (binary) or peptide:14-3-3γ complexes (ternary); format: binding; conditions: individual run, repeat 1, CrkII N-SH3 400 µM into the labelled complex 16.8 µM (Titrations 10, 12, 16)
T3 construct: CrkII^NSH3; UniProt P46108-1, residues 134–191; 8-His tag with TEV protease cleavage site (N); made in house; host or cells: E. coli C41 (DE3)
Description: ITC binding experiments were conducted using a MicroCal iTC200 instrument (Malvern Instruments). Titrations were conducted at 25 °C in reverse mode (peptide in cell, protein in syringe) and consisted of 19 injections of 2 μl […] at a rate of 2 s μl^−1 at 90 s time intervals, whilst stirring at 1000 rpm. An initial injection of 0.4 μl protein was made and discarded during data analysis. Proteins (14-3-3ɣ or CrkII^NSH3) were first dialyzed overnight at 4 °C into ITC buffer (20 mM HEPES pH 7.4, 150 mM NaCl, 1 mM TCEP), filtered and degassed under vacuum. […] Following the first titration, excess solution was removed from the cell, and the syringe was washed and dried. […] All data were fitted to a single binding site model to obtain the stoichiometry (N), dissociation constant (KD) and the enthalpy of binding (ΔH), using MicroCal PEAQ-ITC Analysis software (v.1.41).

[4] = biological target: T4, 14-3-3γ (Homo sapiens, UniProt P61981); experiment: SPR, PEAK peptides binding to immobilised 14-3-3γ; conditions: peptide analyte over amine-coupled 14-3-3γ (CM5); Biacore S200, HBS-TP pH 7.4, 20 °C; steady-state 1:1 fit; mean ± S.E.M.
T4 construct: 14-3-3γ (UniProt P61981-1; residues 1–247); 8-His tag with TEV protease cleavage site (N); made in house; host or cells: E. coli C41 (DE3)
T4 sequence (P61981 1-247): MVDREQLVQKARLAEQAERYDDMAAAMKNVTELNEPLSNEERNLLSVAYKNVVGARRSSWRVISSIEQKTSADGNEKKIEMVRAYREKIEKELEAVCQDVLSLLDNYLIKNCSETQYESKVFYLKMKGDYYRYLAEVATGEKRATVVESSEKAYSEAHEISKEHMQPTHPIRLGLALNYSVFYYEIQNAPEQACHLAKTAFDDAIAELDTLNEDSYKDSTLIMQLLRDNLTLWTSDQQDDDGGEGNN
Description: as §1

[5] = biological target: 14-3-3ɣ; experiment: SPR, 14-3-3ɣ binding to immobilised PEAK proteins; design: species or system human; conditions: 14-3-3ɣ analyte 0.46–1000 nM, multi-cycle, over immobilised biotinylated PEAK protein; Biacore 8K+, 20 °C; KD only an estimate (bivalent analyte model); N = 3
Description: PEAK proteins and adapters proteins (full length or individual domains) were biotinylated using EZ-Link™ NHS-PEG4-Biotin (Thermo Fisher) at a 1:1 molar ratio (100 µM) for 1 h at room temperature, then excess biotin was removed by buffer exchange using a Zeba™ Spin Desalting Column (Thermo Fisher) into HBS-T buffer (20 mM HEPES pH 7.4, 150 mM NaCl, 1 mM TCEP).
SPR binding studies of PEAK proteins to full length CrkII/Grb2 and sub-domains were performed using a Biacore 8K+ Instrument (Cytiva) and analyzed using Biacore Insight Evaluation Software (v. 3.0.12.15655). […] Biotinylated PEAK proteins (with or without Src phosphorylation; 500 nM in HBS-TP) were immobilized using a biotin CAPture kit (Cytiva) in HBS-TP running buffer at 20 °C. Binding studies and steady-state data analysis were performed as described for CrkII^NSH3 with the inclusion of an additional surface regeneration step (60 s injection of 1 M NaCl) between cycles. For Grb2^FL, Grb2^SH2, CrkII^SH2, CrkII^FL monomer and CrkII^FL dimer, to reduce nonspecific interactions the HBS-TP running buffer was supplemented with additional NaCl to a final concentration of 500 mM.
Binding studies for 14-3-3ɣ were undertaken in the same way in multi cycle mode (8 point, 3-fold serial dilution series, 0.46–1000 nM, 60 s contact time, 300 s dissociation).

[6] = biological target: T5, CrkII^SH2 (Homo sapiens, UniProt P46108); experiment: SPR, CrkII SH2 binding to immobilised PEAK proteins; conditions: interactor as analyte over biotinylated PEAK protein (biotin CAPture); Biacore 8K+, HBS-TP with 500 mM NaCl, 20 °C; steady-state fit; mean ± S.E.M. (N = 3)
T5 construct: CrkII^SH2; UniProt P46108-1, residues 6–120; 8-His tag with TEV protease cleavage site (N); made in house; host or cells: E. coli C41 (DE3)
Description: (§2) SPR binding studies of PEAK PRM peptides to CrkII^NSH3 were performed using a Biacore S200 Instrument (Cytiva). Purified CrkII^NSH3 was diluted to 5 µg ml^−1 in 10 mM sodium acetate pH 4.0 and amine coupled at 25 °C to a Series S CM5 sensor chip, in HBS-N running buffer (20 mM HEPES pH 7.4, 150 mM NaCl) to a final immobilization level of 1100–1400 response units (RU), followed by surface deactivation using 1 M ethanolamine. A blank activation/deactivation was used for the reference surface. Peptide binding studies were performed at 20 °C in HBS-TP running buffer (20 mM HEPES pH 7.4, 150 mM NaCl, 1 mM TCEP, 0.005% (v/v) Tween-P20). […] Peptide stocks were further diluted to in running buffer to 10 or 20 µM and prepared as a 11-point concentration series (2-fold serial dilution, […] for PEAK PRM peptides, or 20 µM–20 nM for PEAK tandem motif peptides). Samples were injected in a multi-cycle run (flow rate 30 µl min^−1, contact time of 60 s, dissociation 120 s) without regeneration. Sensorgrams were double referenced, and steady-state binding data fitted using a 1:1 binding model using Biacore S200 Evaluation Software (Cytiva, v. 1.1).
(§3) SPR binding studies of PEAK proteins to full length CrkII/Grb2 and sub-domains were performed using a Biacore 8K+ Instrument (Cytiva) and analyzed using Biacore Insight Evaluation Software (v. 3.0.12.15655). […] Binding studies and steady-state data analysis were performed as described for CrkII^NSH3 with the inclusion of an additional surface regeneration step (60 s injection of 1 M NaCl) between cycles.

[7] = biological target: T3, CrkII^NSH3; experiment: SPR, CrkII NSH3 binding to immobilised PEAK proteins; conditions: read-out: CrkII NSH3 SPR KD; interactor as analyte over biotinylated PEAK protein captured with biotin CAPture kit; Biacore 8K+, HBS-TP, 20 °C; steady-state fit; mean ± SD (N = 2); read-out: CrkII-SH2 SPR KD
Description: as §2, §3

T3 sequence (P46108 134-191): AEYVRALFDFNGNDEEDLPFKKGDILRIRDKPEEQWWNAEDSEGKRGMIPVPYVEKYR
T5 sequence (P46108 6-120): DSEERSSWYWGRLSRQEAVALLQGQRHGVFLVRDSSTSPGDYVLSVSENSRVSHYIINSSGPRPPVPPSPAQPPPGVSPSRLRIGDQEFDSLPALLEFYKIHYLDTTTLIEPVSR

## CC[C@H](C)[C@H](NC(=O)[C@H](CCCCN)NC(=O)[C@H](CCCCN)NC(=O)[C@H](CCC(N)=O)NC(=O)[C@@H]1CCCN1C(=O)[C@H](CC(C)C)NC(=O)[C@@H]1CCCN1C(=O)[C@@H]1CCCN1C(=O)[C@@H]1CCCN1C(C)=O)C(=O)N[C@H](C(=O)N[C@@H](CO)C(=O)N[C@@H](CCCNC(=N)N)C(=O)N[C@@H](C)C(=O)N[C@@H](C)C(=O)N[C@@H](COP(=O)(O)O)C(=O)N[C@@H](CO)C(=O)N1CCC[C@H]1C(=O)N[C@@H](CC(=O)O)C(=O)NCC(=O)N[C@@H](Cc1ccccc1)C(N)=O)C(C)C (single isomer, unassigned) [PEAK2^tandem-pS826]
[1]
  pKd: 5.72
[2]
  pKd: 5.13

## CC[C@H](C)[C@H](NC(=O)[C@H](CCCCN)NC(=O)[C@H](CCCCN)NC(=O)[C@@H]1CCCN1C(=O)[C@H](CC(C)C)NC(=O)[C@@H]1CCCN1C(=O)[C@@H]1CCCN1C(=O)[C@@H]1CCCN1C(=O)[C@H](CC(C)C)NC(=O)[C@@H]1CCCN1C(C)=O)C(=O)N[C@@H](CC(C)C)C(=O)N[C@H](C(=O)N[C@@H](CCCNC(=N)N)C(=O)N[C@H](C(=O)N[C@@H](CCC(N)=O)C(=O)N[C@@H](COP(=O)(O)O)C(=O)N[C@@H](CC(C)C)C(=O)N1CCC[C@H]1C(=O)N[C@H](C(=O)N[C@@H](CCCNC(=N)N)C(=O)N[C@@H](CCCNC(=N)N)C(N)=O)[C@@H](C)O)[C@@H](C)O)[C@@H](C)O (single isomer, unassigned) [PEAK3 tandem-pS69 : 14-3-3γ (K50E)]
[3]
  ITC -T∆S: -3.23 kcal/mol
  ITC N (sites): 0.69
  ITC ∆G: -7.36 kcal/mol
  ITC ∆H: -4.16 kcal/mol

## CC[C@H](C)[C@H](NC(=O)[C@H](CCCCN)NC(=O)[C@H](CCCCN)NC(=O)[C@@H]1CCCN1C(=O)[C@H](CC(C)C)NC(=O)[C@@H]1CCCN1C(=O)[C@@H]1CCCN1C(=O)[C@@H]1CCCN1C(=O)[C@H](CC(C)C)NC(=O)[C@@H]1CCCN1C(C)=O)C(=O)N[C@@H](CC(C)C)C(=O)N[C@H](C(=O)N[C@@H](CCCNC(=N)N)C(N)=O)[C@@H](C)O (single isomer, unassigned) [PEAK3^54–66]
[4]
  SPR KD, 14-3-3γ (gamma): No binding

## CC[C@H](C)[C@H](NC(=O)[C@H](CCCCN)NC(=O)[C@H](CCCCN)NC(=O)[C@@H]1CCCN1C(=O)[C@H](CC(C)C)NC(=O)[C@@H]1CCCN1C(=O)[C@@H]1CCCN1C(=O)[C@@H]1CCCN1C(=O)[C@H](CC(C)C)NC(=O)[C@@H]1CCCN1C(C)=O)C(=O)N[C@@H](CC(C)C)C(=O)N[C@H](C(=O)N[C@@H](CCCNC(=N)N)C(=O)N[C@H](C(=O)N[C@@H](CCC(N)=O)C(=O)N[C@@H](COP(=O)(O)O)C(=O)N[C@@H](CC(C)C)C(=O)N1CCC[C@H]1C(=O)N[C@H](C(=O)N[C@@H](CCCNC(=N)N)C(=O)N[C@@H](CCCNC(=N)N)C(N)=O)[C@@H](C)O)[C@@H](C)O)[C@@H](C)O (single isomer, unassigned) [PEAK3^tandem-pS69]
[2]
  pKd: 6.11

## PEAK3-FL E.coli: full length human PEAK3 (1–473) purified from E. coli, no bound 14-3-3
[5]
  SPR KD, 14-3-3ɣ: No binding
[6]
  SPR KD, CrkII-SH2: No binding
[7]
  pKd: 5.02
